Data: patent publication US20060211081A1, “Sec14 as an antifungal target” (priority 2002, published 2006)

System: C. albicans conditional mutants (SEC14 gene under tetracycline repressible promoter)
Experiment: Murine model of systemic infection with C. albicans conditional mutants, kidney burdens
Format: in vivo, BALB/c mice
Settings: +DOX group (2 mg/ml in 5% sucrose drinking water), at the start of the study and at day 28; 1×10^6 CFU/mouse i.v.
Method: To further validate the essential nature of the SEC14 gene, the conditional mutants of C. albicans strains (as described in Example 4, section 4.1), wherein the SEC14 gene is under the control of a tetracycline repressible promoter, may be tested to determine whether they are attenuated in an immuno-competent murine model of infection (Ghannoum, et al, 1995) as follows:
Initially the organisms were grown in the absence of DOX, since under these conditions they would express the SEC14 gene. These organisms were then used to inoculate two groups of 12 of mice. One group wss treated with DOX, in which expression of the SEC14 gene was repressed, and the second group of mice was treated with water (control) wherein the gene continued to be expressed. The mice used were single sex BALB/c mice, Harlan, 4 weeks old and weighing between 19-22 g.
Infective doses of C. albicans were injected into the tail vein. The inocula were from saline-washed fresh stationary phase cultures grown in NGY medium [0.1% neopeptone, 0.4% glucose, 0.1% yeast extract] for 18-24 h at 30° C. […]
Animals were fed food and water ad libitum throughout the course of experiment. […] Differences between the effects of C. albicans with the SEC14 gene active (−DOX) or repressed (+DOX) in vivo were monitored by mouse survival, kidney burdens of viable fungi, and changes in body weight relative to baseline. […]

In the case of `C[C@H]1c2cccc(O)c2C(=O)C2=C(O)[C@]3(O)C(=O)C(C(N)=O)=C(O)[C@@H](N(C)C)[C@@H]3[C@@H](O)[C@@H]21` [doxycycline], the “Kidney counts (colony forming unit counts per gram of kidney tissue)” value is reported as < 200 cfu/g.
